The source of these data is PMC9787607, “A Novel Protocol for the Synthesis of 1,2,4-Oxadiazoles Active against Trypanosomatids and Drug-Resistant Leukemia Cell Lines” (Tropical Medicine and Infectious Disease, 2022).

One data set relates to K562. In words: MTT cytotoxicity to CML cell line K562. Format: cell-based. The note with it: Homo sapiens, 72 h. On the procedure:
(§1) The CML cell lines K562, Lucena-1 (K562/VCR), and FEPS (K562/DNR) were cultured in RPMI-1640 medium supplemented with 25 mM HEPES and 2 g L^−1 sodium bicarbonate adjusted to pH 7.4 with NaOH, 100 U penicillin and […] streptomycin. All media were supplemented with 10% FBS. Dr. Vivian M. Rumjanek (Instituto de Bioquímica Médica, UFRJ, Brazil) kindly donated Lucena-1 and FEPS cells. Briefly, K562 cells were exposed to increasing concentrations of the chemotherapeutic drugs vincristine sulfate (VCR) and daunorubicin hydrochloride (DNR) (both from Sigma-Aldrich), as described previously. Lucena-1 (K562/VCR) and FEPS (K562/DNR) cells were cultured in the presence of either 60 nM VCR or 500 nM DNR to maintain the MDR phenotypes. For subcultures, cells were harvested every three days followed by washing with cold FBS, and a final concentration of 2 × 10^4 cells mL^−1 was maintained at 37 °C in 5% CO2.
(§2) Cell viability was determined by the 3-(4,5-dimethylthiazol-2-yl)-2,5-diphenyltetrazolium (MTT) colorimetric assay. CML cells (2 × 10^4 cells·mL^−1) were incubated for 72 h at 37 °C, followed by treatment with compounds at a range of concentrations (100–1 μM). Negative controls were prepared with 0.5% DMSO. An MTT salt solution was added to each well to a final concentration of 0.5 g·L^−1, and plates were incubated at 37 °C in 5% CO2 for 3 h. After centrifugation, 200 μL DMSO was added to dissolve the dark-blue formazan crystals formed by MTT reduction. Absorbance was measured on a microplate reader at 570 nm, which is directly proportional to formazan contents and indicative of living cells.
(§3) The percent cell or parasite viability was calculated by the formula: % viability = [(A − P)/(N − P)] × 100, A = absorbance of specific well, P = positive control, N = negative control. Determination of half-maximal effective concentrations (EC50), calculated by logarithmic regression, and significance analysis (p < 0.05), using ANOVA and Dunnett’s test, by GraphPad Prism 7.0 software. The results are expressed as the mean and standard deviation (SD) of three independent experiments.

The test system of data set [1] is drug-sensitive and drug-resistant chronic myeloid leukemia cell lines (K562, Lucena-1, FEPS). The experiment in a line: MTT cytotoxicity to CML cell lines, statements over all lines. Format: cell-based. The note with it: Homo sapiens, K562-Lucena 1, statement over K562, Lucena-1 and FEPS; read-out: EC50 against CML cell lines. The method, then:
as §1, §2

The subject of data set [2] is T. cruzi amastigotes (Tulahuen C2C4 LacZ strain). The experiment in a line: microbe, parasite or virus in culture. It is filed as cell-based, Trypanosoma cruzi. Conditions: for viability at 50 µM: LLC-MK2, 120 h; for EC50: in LLC-MK2, 120 h, read-out: EC50 T. cruzi intracellular amastigotes; for S.I. (selectivity index): host cell/parasite EC50 ratio, LLC-MK2/T. cruzi. The method, then: To a monolayer of 1.0 × 10^7 LLC-MK2 cells in a 150 cm^2 culture flask were added 5.0 × 10^7 trypomastigotes of T. cruzi expressing the […] (Tulahuen C2C4 LacZ) in complete DMEM with 2.5% FBS. The infection was allowed to occur for 24 h, the supernatant was removed, and the cell monolayer was washed with PBS. Complete DMEM with 2.5% FBS was renewed every 2 days up to the sixth day after infection. Trypomastigote forms were collected daily from the supernatant between days 7 and 12 after infection, enriched by differential centrifugation (1500× g for 10 min, 5580× g for 20 min), and resuspended in complete DMEM with 5% FBS. Parasite density was determined by counting the mobile trypomastigotes on Neubauer chambers before use.
. The medium was renewed, and trypomastigote forms of T. cruzi (Tulahuen C2C4 LacZ strain, 2.0 × 10^5 parasites per well) were added. After incubation for 24 h at 37 °C in 5% CO2, the cell monolayer was washed with PBS to remove noninternalized parasites. DMEM without phenol red and 5% FBS was added, and infected cells were treated with compounds at a range of concentrations in triplicate (50 μM or 100–1 μM). Untreated infected cells and noninfected LLC-MK2 cells were used as negative and positive controls, respectively. Vehicle control containing DMEM without phenol red and 0.3% DMSO was maintained for comparison. After incubation for 120 h at 37 °C in 5% CO2, a solution containing […] and 0.8% IGEPAL CA-630 in PBS (30 µL per well), followed by further incubation for 2 h at 37 °C in 5% CO2. Absorbance was measured using a microplate reader at 570 nm.
as §3

Data set [3] concerns L. amazonensis promastigotes. The experiment in a line: Anti-L. amazonensis promastigote assessment (MTT). Format: cell-based. The note with it: Leishmania amazonensis; 48 h, MTT; read-out: EC50 L. amazonensis promastigotes. In short, it runs like this:
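Stationary-phase promastigotes (MHOM/BR/75/Josefa) in Schneider's medium with 10% FBS, 0.3% DMSO vehicle, exposed 48 h at 27 °C; 10 µM amphotericin B as positive control. MTT viability read at 570 nm, normalised to controls; EC50 by logarithmic regression, mean ± SD of three independent experiments.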

Data set [4] can be described thus: Cytotoxicity to BALB/c mouse total splenocytes (MTT). It is filed as cell-based. Conditions: male; for viability at 48 h, 100 µM / viability at 48 h, 0.4 µM / viability at 48 h, 1 µM / viability at 48 h, 2.6 µM / viability at 48 h, 6.4 µM / viability at 48 h, 16 µM / viability at 48 h, 40 µM: total splenocytes (primary); for EC50 at 48 h: primary total splenocytes, MTT, read-out: EC50 murine splenocytes. The method, then: BALB/c mouse total splenocytes were harvested from male mice between 6–8 weeks old. After euthanasia, the spleens were removed and macerated in DMEM. After centrifugation, the cells were treated with hemolytic ACK buffer at 37 °C for 5 min. […] After incubation for 48 h at 37 °C in 5% CO2, cell viability was determined after the addition of 20 µL per well of a solution containing MTT salt (3.0 mM) and phenazine metasulphate (0.72 mM). After further incubation for 1 h at 37 °C, the medium was removed, and DMSO was added to dissolve the dark-blue formazan crystals formed by MTT reduction. Absorbance was measured on a microplate reader at 570 nm.
as §3

[5] abbreviates: Trypanosoma cruzi, TULAHUEN, screening at 50 μM, 120 h, compared with untreated controls.
Where [6] appears, read: 100 μM, 48 h, compared to the untreated control (Table S1).
Setting [7] is: Table S2 dose-dependent, 100 µM.

Molecules are shown by their SMILES.

Broadly, the EC50 is the concentration at which the effect is half-maximal. What is called viability is a per cent measure of how many cells are alive, often set against a control.

As to `COc1cc(/C=C/c2nc(-c3ccccc3)no2)cc(OC)c1OC` [Compound 12, (E)-3-phenyl-5-[2-(3,4,5-trimethoxyphenyl)vinyl]-1,2,4-oxadiazole], the EC50 with K562 is 18 ± 0.9 µM; in data set [1] it was less than 20 µM; in data set [2] (Trypanosoma cruzi, TULAHUEN), 22.5 ± 3.7 µM; in data set [3], 26 ± 3 µM. This compound also came in with a viability at 50 µM in data set [2] (setting [5]) of 37.8 ± 2.6%. The “S.I. (selectivity index)” value in data set [2] is listed as greater than 4.5. Further, the viability at 48 h, 100 µM in data set [4] (setting [6]) stood at 72.1 ± 6.5%.
In the data set on K562, `C(=C\c1nc(-c2ccccc2)no1)/c1cccnc1` [Compound 15, (E)-3-phenyl-5-[2-pyridyn-3-yl-vinyl]-1,2,4-oxadiazole] registered an EC50 of 27.6 ± 5.8 µM. In addition, the EC50 in data set [1] was less than 20 µM. This compound also gave a viability at 50 µM in data set [2] (setting [5]) of 33.8%. In addition, in data set [2] (Trypanosoma cruzi, TULAHUEN), the EC50 was 33.8 ± 2.3 µM. In addition, the “S.I. (selectivity index)” value in data set [2] was greater than 3.0. The “% Viability T. cruzi amastigotes” value in data set [2] (screening at 50 μM, 120 h, compared with untreated controls, 50 µM) came out at 21.5 ± 2.2%. Moreover, the concentration for a half-maximal effect (EC50) in data set [3] is 53.6 ± 2.2 µM. Besides, the EC50 at 48 h in data set [4] (48 h) was 52.2 ± 4.51 µM. Moreover, in data set [4] (Table S2 dose-dependent), the viability at 48 h, 0.4 µM came to 94.5 ± 9.1%; the viability at 48 h, 1 µM came to 92.7 ± 4.1%; the viability at 48 h, 2.6 µM was 86.3 ± 7.5%; the viability at 48 h, 6.4 µM was determined as 90.2 ± 10.7%. In data set [4] (Table S2 dose-dependent), this compound yielded a viability at 48 h, 16 µM of 77.7 ± 4.8% and a viability at 48 h, 40 µM of 63.1 ± 5.8%. In data set [4] (setting [7]), this compound registered a viability at 48 h, 100 µM of 29.5 ± 1.6%.
As to `COc1cc(/C=C/c2nc(-c3cc(OC)c(OC)c(OC)c3)no2)cc(OC)c1OC` [Compound 23, (E)-3-(3,4,5-trimethoxyphenyl)-5-[2-(3,4,5-trimethoxyphenyl)-vinyl]-1,2,4-oxadiazole], a half-maximal response with K562 (EC50) required 13.2 ± 2.9 µM. Also, the “lowest concentration with significant amastigote growth inhibition compared with host cell toxicity” value in data set [2] (T. cruzi vs LLC-MK2, p < 0.05) was found to be 1.0 µM. Moreover, the viability at 50 µM in data set [2] (setting [5]) stood at 8.6 ± 1.2%. In addition, the viability at 1 µM in data set [2] (Trypanosoma cruzi, TULAHUEN, LLC-MK2, T. cruzi amastigotes at 1.0 μM, read-out: amastigote viability) amounted to 81.3 ± 6.2%. The EC50 in data set [2] (Trypanosoma cruzi, TULAHUEN) was determined as 2.9 ± 0.2 µM. Moreover, the “S.I. (selectivity index)” value in data set [2] was determined as 26.7. Also, the concentration giving a half-maximal response (EC50) in data set [3] was 12.2 ± 0.7 µM. In addition, the EC50 at 48 h in data set [4] (48 h) amounted to 33.3 ± 2.83 µM. In data set [4] (Table S2 dose-dependent), this compound came in with a viability at 48 h, 0.4 µM of 97.3 ± 3.3%; a viability at 48 h, 1 µM of 94.9 ± 4%; a viability at 48 h, 2.6 µM of 95 ± 4.4%; a viability at 48 h, 6.4 µM of 84.6 ± 6.7%. In addition, in data set [4] (Table S2 dose-dependent), the viability at 48 h, 16 µM is 69.5 ± 6.4% and the viability at 48 h, 40 µM was 43.4 ± 4.2%. This compound also gave a viability at 48 h, 100 µM in data set [4] (setting [7]) of 14.1 ± 3.5%.
`COc1cc(-c2noc(/C=C/c3ccc4c(c3)OCO4)n2)cc(OC)c1OC` [Compound 24, (E)-3-(3,4,5-trimethoxyphenyl)-5-[2-(3,4-methylenedioxy-phenyl)vinyl]-1,2,4-oxadiazole]: the EC50 in the data set with K562 was 60.4 ± 4.1 µM; in data set [1], less than 20 µM; in data set [2] (Trypanosoma cruzi, TULAHUEN), 28.7 ± 3.1 µM; in data set [3], 10 ± 2.7 µM. The viability at 50 µM in data set [2] (setting [5]) was determined as 42.2 ± 2.7%. Further, in data set [2], the “S.I. (selectivity index)” value is given as 1.9. The same compound yielded a viability at 48 h, 100 µM in data set [4] (setting [6]) of 72.8 ± 4.2%.
